Data published in patent US10196363B2, “Dihydropyrimidin-2-one compounds and medical use thereof” (JAPAN TOBACCO INC., priority 2014, dated 2019).
Read-outs that look alike come from different tables or passages of the source.

Key:
human RORγ = biological target: T1, human RORγ (Homo sapiens, UniProt P51449); assay: In vitro assay of inhibitory effect against RORγ transcriptional activity (GAL4-hRORγ LBD luciferase reporter gene assay in CHO cells); type: cell-based; conditions: for hRORγ luciferase activity, %-of-control: vehicle-control 0.2% DMSO alone = 100%
T1 construct: human RORγ, from Ser253 to Lys518; expressed in transfected cells; host or cells: CHO cells (Chinese hamster ovary), transient co-transfection with pG5-Luc
T1 sequence (P51449 253-518): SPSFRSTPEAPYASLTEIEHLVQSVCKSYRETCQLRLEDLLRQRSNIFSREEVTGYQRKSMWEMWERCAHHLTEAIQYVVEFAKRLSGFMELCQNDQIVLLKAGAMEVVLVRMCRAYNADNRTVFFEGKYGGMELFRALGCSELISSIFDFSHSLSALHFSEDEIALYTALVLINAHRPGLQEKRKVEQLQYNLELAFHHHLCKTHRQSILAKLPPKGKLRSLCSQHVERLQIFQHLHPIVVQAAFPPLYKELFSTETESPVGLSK
Outline: (§1)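 CHO cells were transiently co-transfected with a GAL4-DBD fusion of the human (Ser253–Lys518) or mouse (Ile251–Lys516) RORγ LBD plus a GAL4-luciferase reporter. Cells were treated with 8 compound concentrations (0.2% DMSO) for 2 days at 37 °C. Luciferase was expressed as %-of-vehicle control, EC50 was curve-fitted, and cytotoxic concentrations were excluded.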

mouse RORγ = biological target: T2, mouse RORγ (Mus musculus, UniProt P51450); assay: In vitro assay of inhibitory effect against RORγ transcriptional activity (GAL4-mRORγ LBD luciferase reporter gene assay in CHO cells); type: cell-based; conditions: for mRORγ luciferase activity, %-of-control: value in parentheses beside the > EC50 bound, vehicle-control 0.2% DMSO alone = 100%
T2 construct: mouse RORγ, from Ile251 to Lys516; expressed in transfected cells; host or cells: CHO cells (Chinese hamster ovary), transient co-transfection with pG5-Luc
T2 sequence (P51450 251-516): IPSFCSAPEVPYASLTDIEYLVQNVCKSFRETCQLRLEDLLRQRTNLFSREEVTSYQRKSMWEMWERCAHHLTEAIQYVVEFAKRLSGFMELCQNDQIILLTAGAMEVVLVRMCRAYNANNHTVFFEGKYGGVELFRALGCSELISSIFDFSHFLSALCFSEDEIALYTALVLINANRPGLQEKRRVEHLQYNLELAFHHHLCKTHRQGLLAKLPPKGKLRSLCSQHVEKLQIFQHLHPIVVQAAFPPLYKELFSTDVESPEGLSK
Outline: as §1

[1] = GAL4-hRORγ LBD / pG5-Luc in CHO cells, 2 days incubation
[2] = GAL4-mRORγ LBD / pG5-Luc in CHO cells, 2 days incubation
[3] = GAL4-hRORγ LBD luciferase reporter, CHO cells, read-out: LUC EC50 hRORγ
[4] = GAL4-mRORγ LBD luciferase reporter, CHO cells, read-out: LUC EC50 mRORγ
[5] = value in parentheses beside the > EC50 bound

SMILES	EC50 (human RORγ; [1])	EC50 (mouse RORγ; [2])	EC50 (human RORγ; [3])	EC50 (mouse RORγ; [4])	other results
CC(C)C1=CN(CCC(=O)O)C(=O)N[C@@]1(C)c1ccc(C2=CCC(C)(C)CC2)c(Cl)c1 [Example 116, 3-{(S)-4-[3-chloro-4-(4,4-dimethyl-cyclohex-1-enyl)-phenyl]-5-isopropyl-4-methyl-2-oxo-3,4-dihydro-2H-pyrimidin-1-yl}-propionic Acid]	15 nM	22 nM			
CC(C)C1=CN(CCC(=O)O)C(=O)N[C@@]1(C)c1ccc(CCCC(F)(F)F)c(Cl)c1 [Example 129]	47 nM	< 32 nM			
CC(C)C1=CN(CCC(=O)O)C(=O)N[C@@]1(C)c1ccc(SC2CCCC2)c(Cl)c1 [Example 224]			343 nM	123 nM	
CC(C)C1=CN(CCC(=O)O)C(=O)N[C@@]1(C)c1ccc(CCC2CCCC2)c(Cl)c1 [Example 120]	61 nM	14 nM			
COc1cc(N2C=C(C3CC(F)(F)C3)[C@](C)(c3ccc(CCC(C)(C)C)c(Cl)c3)NC2=O)ccc1C(=O)O [Example 346]			26 nM	18 nM	
CC(C)(C)COc1ccc(C2NC(=O)N(CCCC(=O)O)C=C2C(C)(C)C)cc1Cl (single isomer, unassigned) [Example 5, 4-{5-tert-butyl-4-[3-chloro-4-(2,2-dimethylpropoxy)-phenyl]-2-oxo-3,4-dihydro-2H-pyrimidin-1-yl}-butanoic Acid]	34 nM	24 nM			
CC(C)(C)CCc1ccc([C@]2(C)NC(=O)N(C34CC(C(=O)O)(C3)C4)C=C2C2CC(F)(F)C2)cc1Cl [Example 316]			18 nM	19 nM	
CC(C)C1=CN(CCCCC(=O)O)C(=O)N[C@@]1(C)c1ccc(CCC(C)(C)C)c(Cl)c1 [Example 48]	12 nM	16 nM			
CC(C)C1=CN(CCC(=O)O)C(=O)N[C@@]1(C)c1ccc(C2CC2C(C)(C)C)c(Cl)c1 (single isomer, unassigned) [Example 169]	8 nM	15 nM			
CC(C)C1=CN(CCC(=O)O)C(=O)N[C@@]1(C)c1ccc(C2=CCCCC2)c(Cl)c1 [Example 134]	70 nM	27 nM			
CC(C)(C)CCc1ccc([C@]2(C)NC(=O)N(C3CC(C)(C)C3)C=C2[C@H]2C[C@H](C(=O)O)C2)cc1Cl (single isomer, unassigned) [Example 287]			36 nM	34 nM	
CC(C)C1=CN(CCC(=O)O)C(=O)N[C@]1(C)c1ccc(CCCC(F)(F)F)c(Cl)c1 [Example 128]	> 20000 nM	> 20000 nM			hRORγ luciferase activity, %-of-control (human RORγ; [5]): (66%); mRORγ luciferase activity, %-of-control (mouse RORγ): (54%)
CC(C)C1=CN(CCC(=O)O)C(=O)N[C@@]1(C)c1ccc(CC2CCCCC2)c(Cl)c1 [Example 268]			15 nM	14 nM	
CC(C)C1=CN(CCC(=O)O)C(=O)N[C@]1(C)c1ccc(C2=CCC(C)(C)CC2)c(Cl)c1 [Example 115, 3-{(R)-4-[3-Chloro-4-(4,4-dimethyl-cyclohex-1-enyl)-phenyl]-5-isopropyl-4-methyl-2-oxo-3,4-dihydro-2H-pyrimidin-1-yl}-propionic Acid]	> 8000 nM	> 8000 nM			hRORγ luciferase activity, %-of-control (human RORγ; [5]): (110%); mRORγ luciferase activity, %-of-control (mouse RORγ): (100%)
CC(C)C1=CN(CC2(C(=O)O)CC2)C(=O)N[C@]1(C)c1ccc(CCC(C)(C)C)c(Cl)c1 [Example 97]	1340 nM	3100 nM			
COCCC1=CN(CCC(=O)O)C(=O)N[C@@]1(C)c1ccc(CC2CCCCC2)c(Cl)c1 [Example 335]			26 nM	11 nM	
Cc1cc(C(=O)O)ccc1N1C=C(C(C)C)[C@](C)(c2ccc(CCC(C)(C)C)c(Cl)c2)NC1=O [Example 220]			22 nM	29 nM	
COc1cc([C@]2(C)NC(=O)N(CCC(=O)O)C=C2C(C)C)ccc1CCC(C)(C)C [Example 213]			131 nM	56 nM	
CC(C)C1=CN(CCc2ccc(C(=O)O)cc2)C(=O)N[C@@]1(C)c1ccc(CCC(C)(C)C)c(Cl)c1 [Example 50]	7 nM	13 nM			

SMILES	EC50 (human RORγ; [1])	EC50 (mouse RORγ; [2])	EC50 (human RORγ; [3])	EC50 (mouse RORγ; [4])	other results
CC(C)C1=CN(C2CN(C(=O)OC(C)(C)C)CC2C(=O)O)C(=O)N[C@@]1(C)c1ccc(CCC(C)(C)C)c(Cl)c1 (single isomer, unassigned) [Example 237]			719 nM	673 nM	
CC(C)(C)COc1ccc(C2NC(=O)NC=C2C(C)(C)CCC(=O)O)cc1Cl (racemic) [Example 7]	152 nM	110 nM			
C[C@@]1(c2ccc(OCCC3CCC3)c(Cl)c2)NC(=O)N(C23CC(C(=O)O)(C2)C3)C=C1C1CC(F)(F)C1 [Example 357]			34 nM	29 nM	
CC(C)C1=CN(CCC(=O)O)C(=O)N[C@@]1(C)c1ccc(C=C2CCOCC2)c(Cl)c1 [Example 289]			1120 nM	773 nM	
CC1=C(C(C)C)C(C)(c2ccc(CCC(C)(C)C)c(Cl)c2)NC(=O)N1CCCC(=O)O (racemic) [Example 90]	15 nM	18 nM			
CC(C)C1=CN(CC2(C(=O)O)CC2)C(=O)N[C@@]1(C)c1ccc(CCC(C)(C)C)c(Cl)c1 [Example 98]	13 nM	18 nM			
COCC(C)C1=CN(c2ccc(C(=O)O)cc2)C(=O)N[C@@]1(C)c1ccc(CCC(C)(C)C)c(Cl)c1 (single isomer, unassigned) [Example 308]			32 nM	25 nM	
CC(C)OCc1ccc([C@]2(C)NC(=O)N(CCC(=O)O)C=C2C(C)C)cc1Cl [Example 157]	497 nM	255 nM			
CC(C)C1=CN(C2CCCC(C(=O)O)C2)C(=O)N[C@@]1(C)c1ccc(CCC(C)(C)C)c(Cl)c1 (single isomer, unassigned) [Example 257]			165 nM	115 nM	
CC(C)C1=CN([C@H](C)CC(=O)O)C(=O)N[C@@]1(C)c1ccc(CCC(C)(C)C)c(Cl)c1 [Example 236]			20 nM	15 nM	
CC(C)C1=CN(CCC(C)(C)C(=O)O)C(=O)N[C@]1(C)c1ccc(CCC(C)(C)C)c(Cl)c1 [Example 54]	> 8000 nM	> 8000 nM			hRORγ luciferase activity, %-of-control (human RORγ; [5]): (92%); mRORγ luciferase activity, %-of-control (mouse RORγ): (81%)
CC(C)C1=CN(CCC(C)C(=O)O)C(=O)NC1(C)c1ccc(OCC(C)(C)C)c(Cl)c1 (single isomer, unassigned) [Example 20]	2930 nM	2520 nM			
CC(C)C1=CN(c2ccc(C(=O)O)cc2)C(=O)N[C@@]1(C)c1ccc(CCC(C)(C)C)c(F)c1 [Example 356]			21 nM	15 nM	
CC(C)(C)CCc1ccc([C@]2(C)NC(=O)N(CCCC(=O)O)C=C2C2CCOCC2)cc1Cl [Example 92]	13 nM	20 nM			
CC(C)C1=CN([C@@H]2CCCC[C@H]2C(=O)O)C(=O)N[C@@]1(C)c1ccc(CCC(C)(C)C)c(Cl)c1 [Example 235]			> 3200 nM	1610 nM	hRORγ luciferase activity, %-of-control (human RORγ; value in parentheses beside the EC50 bound): (70%)
CC(C)(C)CCc1ccc([C@]2(C)NC(=O)N(CCCC(=O)O)C=C2C2CC(F)(F)C2)cc1Cl [Example 146]	14 nM	12 nM			
CC(C)C1=CN(CCC(=O)O)C(=O)N[C@@]1(C)c1ccc(CCC2CCCCC2)c(Cl)c1 [Example 139]	> 512 nM	27 nM			hRORγ luciferase activity, %-of-control (human RORγ; [5]): (110%)
CC(C)C1=CN(CCC(=O)O)C(=O)N[C@@]1(C)c1ccc(CCC(C)(C)O)c(Cl)c1 [Example 293]			1100 nM	1020 nM	
